Measurements from patent publication US20250099383A1, “COMPOSITIONS AND METHODS FOR DELIVERY OF NUCLEIC ACIDS” (Poseida Therapeutics, Inc., priority 2022, published 2025).

Test: Physical characteristics of LNPs (particle size, PDI)
Type: physicochemical
Conditions: for PDI DNA / Particle Size (nm) DNA: LNP with Fluc DNA, compound/DOPE/Cholesterol/DMG-PEG2000 38/50/10.0/2.0, Lipid:DNA 45:1 (w/w); for PDI RNA / Particle Size (nm) RNA: LNP with Fluc mRNA, compound/DOPE/Cholesterol/DMG-PEG2000 41.44/45.85/10/2.7, Lipid:RNA 40:1 (w/w)
Method: LNP compositions of the present disclosure comprising exemplary compounds of Formula (I) were prepared by combining various percentages of an exemplary compound of Formula (I), the phospholipid DOPE, the structural lipid cholesterol (Chol) and 1,2-dimyristoyl-sn-glycerol methoxypolyethylene glycol (DMG-PEG2000; Avanti Polar Lipids, Alabaster, Alabama, USA).
Individual 25 mg/ml stock solutions were prepared by solubilizing the lipids in 200-proof HPLC-grade ethanol and stock solutions were stored at −80° C. until formulated. At the time of formulation, the lipid stock solutions were briefly allowed to equilibrate to room temp and then placed on a hot plate maintained at a temperature range of 50-55° C.
A 1 mg/ml solution of the desired mRNA or DNA to be incorporated into the LNPs was added to 150 mM sodium acetate buffer (pH 5.2) to form a stock solution and kept on ice. The aqueous mRNA or DNA was then added to the lipids as shown in Table 4 or 5 and hand-mixed vigorously with a single channel pipettor.
The resultant mRNA or DNA LNP compositions were then transferred to a Repligen Float-A-Lyzer dialysis device-having a molecular weight cut off (MWCO) of 8-10 kDa (Spectrum Chemical Mfg. Corp, CA, USA) and processed by dialysis against phosphate buffered saline (PBS) (dialysate: dialysis buffer volume at least 1:200 v/v), pH 7.4 overnight at 4° C. (or alternatively room temperature for at least 4 hours), to remove the 25% ethanol and achieve a complete buffer exchange. In some experiments the LNPs were further concentrated by in an Amicon® Ultra-4 centrifugal filter unit, MWCO-30 kDa (Millipore Sigma, USA) spun at ˜4100 x g in an ultracentrifuge. The mRNA and DNA LNPs were then stored at 4° C. until further use.
LNP compositions of the present disclosure comprising mRNA or DNA encoding firefly luciferase (hereafter “Fluc”; TriLink) and COMPOUNDS 5-49 were prepared as described in Example 61 by combining one of COMPOUNDS 5-49, the phospholipid DOPE, the structural lipid cholesterol (Chol) and 1,2-dimyristoyl-sn-glycerol methoxypolyethylene glycol (DMG-PEG2000) in the percentages presented in Tables 6 and 7:
The physical characteristics of the resulting LNPs were analyzed.
A 1 mg/ml solution of the 5′-CleanCap--fLuciferase mRNA (TriLink Biotech) to be incorporated into the LNPs was added to 150 mM sodium acetate buffer (pH 5.2) to form a stock solution and kept on ice. The lipid phase was mixed with the aqueous mRNA phase inside a microfluidic chip using a NanoAssemblr® instrument (Precision Nanosystems, Vancouver, BC, Canada) according to the manufacturer's instructions to form LNP compositions comprising encapsulated mRNAs.
The average particle size diameter of the LNPs was approximately 75-150 nm.

Row | SMILES | PDI DNA | Particle Size (nm) DNA [nm] | PDI RNA | Particle Size (nm) RNA [nm]
1 | CC(C)=CCC/C(C)=C/CCC1=CCC(C(=O)OCCOC(=O)CCN(CCCN(C)C)CCC(=O)OCCOC(=O)C2CC=C(CC/C=C(\C)CCC=C(C)C)CC2)CC1 (stereo not shown) [Compound 5, (E)-((3,3′-((3-(dimethylamino)propyl)azanediyl)bis(propanoyl))bis(oxy)) bis(ethane-2,1-diyl)bis(4-((E)-4,8-dimethylnona-3,7-dien-1-yl)cyclohex-3-enecarboxylate)] | 0.203 | 187.9 | 0.200 | 180.3
2 | CC(C)=CCC/C(C)=C/CCC1=CCC(C(=O)OCCOC(=O)CCN(CCC(=O)OCCOC(=O)C2CC=C(CC/C=C(\C)CCC=C(C)C)CC2)CCN2CCCCC2)CC1 (stereo not shown) [Compound 6, (E)-((3,3′-((2-(piperidin-1-yl)ethyl)azanediyl)bis(propanoyl))bis(oxy)) bis(ethane-2,1-diyl)bis(4-((E)-4,8-dimethylnona-3,7-dien-1-yl)cyclohex-3-enecarboxylate)] | 0.154 | 167 | 0.260 | 202.2
3 | CC(C)=CCC/C(C)=C/CCC1=CCC(C(=O)OCCOC(=O)CCN(CCCCCCN(CCC(=O)OCCOC(=O)C2CC=C(CC/C=C(\C)CCC=C(C)C)CC2)CCC(=O)OCCOC(=O)C2CC=C(CC/C=C(\C)CCC=C(C)C)CC2)CCC(=O)OCCOC(=O)C2CC=C(CC/C=C(\C)CCC=C(C)C)CC2)CC1 (stereo not shown) [Compound 7] | 0.221 | 299.7 | 0.099 | 441.0
4 | CC(C)=CCC/C(C)=C/CCC1=CCC(C(=O)OCCOC(=O)CCN(CCC(=O)OCCOC(=O)C2CC=C(CC/C=C(\C)CCC=C(C)C)CC2)CCN(CCN(CCC(=O)OCCOC(=O)C2CC=C(CC/C=C(\C)CCC=C(C)C)CC2)CCC(=O)OCCOC(=O)C2CC=C(CC/C=C(\C)CCC=C(C)C)CC2)CCN(CCC(=O)OCCOC(=O)C2CC=C(CC/C=C(\C)CCC=C(C)C)CC2)CCC(=O)OCCOC(=O)C2CC=C(CC/C=C(\C)CCC=C(C)C)CC2)CC1 (stereo not shown) [Compound 11] | 0.152 | 396.1 | 0.145 | 355.6
5 | CC(C)CCCC(C)CCCC1CCC(C(=O)OCCOC(=O)CCN(CCC(=O)OCCOC(=O)C2CCC(CCCC(C)CCCC(C)C)CC2)CCN2CCCCC2)CC1 (stereo not shown) [Compound 13, ((3,3′-((2-(piperidin-1-yl)ethyl)azanediyl)bis(propanoyl))bis(oxy)) bis(ethane-2,1-diyl)bis(4-(4,8-dimethylnonyl)cyclohexanecarboxylate)] | 0.232 | 174.1 | 0.272 | 120.6
6 | CC(C)=CCCC1=CCC(C(=O)OCCOC(=O)CCN(CCCCCCN(CCC(=O)OCCOC(=O)C2CC=C(CCC=C(C)C)CC2)CCC(=O)OCCOC(=O)C2CC=C(CCC=C(C)C)CC2)CCC(=O)OCCOC(=O)C2CC=C(CCC=C(C)C)CC2)CC1 (stereo not shown) [Compound 20] | 0.223 | 304.3 | 0.082 | 316.9
7 | CC(C)=CCCC1=CCC(C(=O)OCCOC(=O)CCN(CCC(=O)OCCOC(=O)C2CC=C(CCC=C(C)C)CC2)CC(C)N(CCC(=O)OCCOC(=O)C2CC=C(CCC=C(C)C)CC2)CCC(=O)OCCOC(=O)C2CC=C(CCC=C(C)C)CC2)CC1 (stereo not shown) [Compound 21] | 0.206 | 268.3 | 0.102 | 296.9
8 | CC(C)=CCCC1=CCC(C(=O)OCCOC(=O)CCN(CCC(=O)OCCOC(=O)C2CC=C(CCC=C(C)C)CC2)CCN(CCN(CCC(=O)OCCOC(=O)C2CC=C(CCC=C(C)C)CC2)CCC(=O)OCCOC(=O)C2CC=C(CCC=C(C)C)CC2)CCN(CCC(=O)OCCOC(=O)C2CC=C(CCC=C(C)C)CC2)CCC(=O)OCCOC(=O)C2CCC(CCC=C(C)C)CC2)CC1 (stereo not shown) [Compound 24] | 0.294 | 353.7 | 0.106 | 314.9
9 | CC(C)CCCC1CCC(C(=O)OCCOC(=O)CCN(CCCN(C)C)CCC(=O)OCCOC(=O)C2CCC(CCCC(C)C)CC2)CC1 (stereo not shown) [Compound 25] | 0.227 | 188.5 | 0.143 | 177.9
10 | CC(C)CCCC1CCC(C(=O)OCCOC(=O)CCN(CCC(=O)OCCOC(=O)C2CCC(CCCC(C)C)CC2)CCN2CCCCC2)CC1 (stereo not shown) [Compound 26] | 0.151 | 162.1 | 0.202 | 169.4
11 | CC(C)=CCC/C(C)=C/CCC1=CCC(C(=O)OCCN(C)CCOC(=O)C2CC=C(CC/C=C(\C)CCC=C(C)C)CC2)CC1 (stereo not shown) [Compound 32] | 0.09 | 289.2 | 0.108 | 269.6
12 | CCN(CCOC(=O)C1CC=C(CC/C=C(\C)CCC=C(C)C)CC1)CCOC(=O)C1CC=C(CC/C=C(\C)CCC=C(C)C)CC1 (stereo not shown) [Compound 33] | 0.087 | 302 | 0.079 | 332.9
13 | CCCCN(CCOC(=O)C1CC=C(CC/C=C(\C)CCC=C(C)C)CC1)CCOC(=O)C1CC=C(CC/C=C(\C)CCC=C(C)C)CC1 (stereo not shown) [Compound 34] | 0.128 | 290.2 | 0.127 | 386.4

Now from value to molecule:

Row | PDI DNA | Particle Size (nm) DNA [nm] | PDI RNA | Particle Size (nm) RNA [nm] | SMILES
14 | 0.235 | 170.6 | 0.235 | 167.6 | CC(C)CCCC(C)CCCC1CCC(C(=O)OCCOC(=O)CCN(CCCN(C)C)CCC(=O)OCCOC(=O)C2CCC(CCCC(C)CCCC(C)C)CC2)CC1 (stereo not shown) [Compound 12, ((3,3′-((3-(dimethylamino)propyl)azanediyl)bis(propanoyl))bis(oxy)) bis(ethane-2,1-diyl)bis(4-(4,8-dimethylnonyl)cyclohexanecarboxylate)]
15 | 0.219 | 348.8 | 0.104 | 334.8 | CC(C)CCCC(C)CCCC1CCC(C(=O)OCCOC(=O)CCN(CCCCCCN(CCC(=O)OCCOC(=O)C2CCC(CCCC(C)CCCC(C)C)CC2)CCC(=O)OCCOC(=O)C2CCC(CCCC(C)CCCC(C)C)CC2)CCC(=O)OCCOC(=O)C2CCC(CCCC(C)CCCC(C)C)CC2)CC1 (stereo not shown) [Compound 14]
16 | 0.183 | 297.6 | 0.115 | 362.5 | CC(C)CCCC(C)CCCC1CCC(C(=O)OCCOC(=O)CCN(CCC(=O)OCCOC(=O)C2CCC(CCCC(C)CCCC(C)C)CC2)CC(C)N(CCC(=O)OCCOC(=O)C2CCC(CCCC(C)CCCC(C)C)CC2)CCC(=O)OCCOC(=O)C2CCC(CCCC(C)CCCC(C)C)CC2)CC1 (stereo not shown) [Compound 15]
17 | 0.072 | 368.6 | 0.153 | 323.3 | CC(C)CCCC(C)CCCC1CCC(C(=O)OCCOC(=O)CCN(CCC(=O)OCCOC(=O)C2CCC(CCCC(C)CCCC(C)C)CC2)CCN(CCN(CCC(=O)OCCOC(=O)C2CCC(CCCC(C)CCCC(C)C)CC2)CCC(=O)OCCOC(=O)C2CCC(CCCC(C)CCCC(C)C)CC2)CCN(CCC(=O)OCCOC(=O)C2CCC(CCCC(C)CCCC(C)C)CC2)CCC(=O)OCCOC(=O)C2CCC(CCCC(C)CCCC(C)C)CC2)CC1 (stereo not shown) [Compound 18]
18 | 0.177 | 253.9 | 0.149 | 293.9 | CC(C)CCCC1CCC(C(=O)OCCOC(=O)CCN(CCCCCCN(CCC(=O)OCCOC(=O)C2CCC(CCCC(C)C)CC2)CCC(=O)OCCOC(=O)C2CCC(CCCC(C)C)CC2)CCC(=O)OCCOC(=O)C2CCC(CCCC(C)C)CC2)CC1 (stereo not shown) [Compound 27]
19 | 0.12 | 224.7 | 0.027 | 254.2 | CC(C)CCCC1CCC(C(=O)OCCOC(=O)CCN(CCC(=O)OCCOC(=O)C2CCC(CCCC(C)C)CC2)CC(C)N(CCC(=O)OCCOC(=O)C2CCC(CCCC(C)C)CC2)CCC(=O)OCCOC(=O)C2CCC(CCCC(C)C)CC2)CC1 (stereo not shown) [Compound 28]
